Results taken from US7901893B2, “NPC1L1 (NPC3) and methods of identifying ligands thereof” (Merck Sharp & Dohme Corp., priority 2004, dated 2011).
“Also recorded” adds a separate entry of the source. Where two headings read alike, the source gives them in different places. Values belong to the compound of their own block, whether it stands above or below them.

Assays:
cholesterol absorption [1] = assay: Acute rat cholesterol absorption study; format: in vivo; settings: rat acute cholesterol absorption model
Method: To determine if in vitro binding activity is predictive of in vivo efficacy, the enantiomer of ezetimibe glucuronide and several close structural analogues of ezetimibe glucuronide that were tested in the rat membrane binding assay were tested in an acute rat cholesterol absorption study as described in Examples 23-26. […] For the other analogs, the same rank order of potency is observed in the in vitro and in vivo assays, further evidence that the observed binding is due to the target of ezetimibe.

[2] = test system: brush border membranes from NPC1L1 knockout (−/−) mice; assay: Binding assay with brush border membranes from NPC1L1 deficient mice; parameters: species or system mouse
Method: Brush border membranes vesicles were prepared from intestinal tissues of wild type and NPC1L1 knockout (−/−) mice. 15, 30 and 60 μg protein/assay of brush border membranes vesicles were incubated with 4 nM ^35S-2 in buffer A for 3 hours at 37° C. in the presence and absence of 100 μM EZE-glucuronide.
For FIG. 14A, enterocyte brush border membranes were prepared from NPC1L1 deficient male mice and same sex wild-type littermates, and tested for binding of 1. […] Membranes from wild type mice are on the left and from NPC1L1 deficient mice on the right.

cholesterol absorption [3] = settings: cited from earlier work
[4] = test system: CHO background (no transfection); assay: Effect of ezetimibe on cholesterol uptake, CHO background; format: cell-based, chinese hamster; settings: EZ (10 μM), CHO Control
Method: (§1) The effect of ezetimibe on the ability of CHO cells stably transfected with mouse or rat NPC1L1 or mouse SR-B1 to take up ^3H-labeled cholesterol was evaluated in pulse-chase experiments. One cDNA clone of mouse NPC1L1 (C7) and three clones of rat NPC1L1 (C7, C17 and C21) were evaluated. The ability of CHO cells stably transfected with mouse SR-B1, mouse NPC1L1 and rat NPC1L1 to take up labeled cholesterol, in the absence of ezetimibe, was also evaluated in the pulse-chase experiments. Data generated in these experiments are set forth, below, in Tables 4 and 5. Additionally, the quantity of total cholesterol taken up by transfected and untransfected CHO cells in the presence of four different unlabeled cholesterol concentrations was also evaluated.
(§2) Starve. The maintenance media (F12 HAMS, 1% Pen/Strep, 10% FCS) was removed and the cells were rinsed with serum-free HAMS media. The serum-free media was then replaced with 1 mL “starve” media (F12 HAMS, Pen/Strep, 5% lipoprotein deficient serum (LPDS). The cells were then starved overnight.
(§3) Pre-Incubation/pre-dose. Media was removed from all plates and replaced with fresh starve media and preincubated for 30 minutes. Half of the wells received media containing ezetimibe (stock soln in EtOH; final conc.=10 μM).
(§4) ^3H-Cholesterol Pulse. The following was added directly to each well: • 0.5 μCi ^3H-cholesterol (˜1.1×10^6 dpm/well) in 50 μl of a mixed bile salt micelle • 4.8 mM sodium taurocholate (2.581 mg/mL) • 0.6 mM sodium oleate (0.183 mg/mL) • 0.25 mM cholesterol (0.1 mg/mL) • Dispersed in “starve” media by ultrasonic vibration • Final media cholesterol concentration=5 μg/mL
(§5) Labeled cholesterol pulse time points were 4, 12, 24 minutes and 4 hours. Triplicate wells were prepared for each treatment.
(§6) Wash. At designated times, media was aspirated and cells were washed once with Hobbs Buffer A (50 mM Tris, 0.9% NaCl, 0.2% bovine serum albumin (BSA), pH 7.4) and once with Hobbs Buffer B (50 mM Tris, 0.9% NaCl, pH 7.4 (no BSA)) at 37° C.
(§7) A. 4, 12, 24 minute time points: Cells were digested overnight with 0.2N NaOH, 2 mL/well, room temperature. One 1.5 mL aliquot was removed from each well, neutralized & counted for radioactivity by scintillation counting.
(§8) B. 4 hour time point: The digested cells were analyzed by thin-layer chromatography to determine the content of cholesterol ester in the cells.
(§9) Extracts were spotted onto TLC plates and run for 30 minutes in 2 ml hexane:isopropanol (3:2) mobile phase for 30 minutes, followed by a second run in 1 ml hexane:isopropanol (3:2) mobile phase for 15 minutes.
(§10) C. Protein determination of cell extracts. Plates containing a sample of the cell extracts were placed on orbital shaker at 120 rpm for indicated times and then extracts are pooled into 12×75 tubes. Plates were dried and NaOH (2 ml/well) added. The protein content of the samples were then determined. Two additional 50 μl aliquots from all wells were assayed for total protein by the Pierce micro BCA method. The quantity of labeled cholesterol observed in the cells was normalized to the quantity of protein in the cells.

mouse NPC1L1 = molecular target: T1, mouse NPC1L1 (Mus musculus, UniProt Q6T3U4); assay: Effect of ezetimibe on cholesterol uptake, mouse NPC1L1 transfected CHO cells; format: cell-based; settings: EZ (10 μM), mNPC1L1(C7)
T1 construct: expressed in transfected cells; pCDNA3)
Method: as §1, §2, §3, §4, §5, §6, §7, §8, §9, §10

cholesterol absorption [5] = settings: mouse; cited from earlier work

Compound: O=C(O)C1OC(Oc2ccc(C3C(CCC(O)c4ccc(F)cc4)C(=O)N3c3ccc(F)cc3)cc2)C(O)C(O)C1O (single isomer, unassigned) [Compound 4]
activity in vivo (cholesterol absorption [1]): inactive; also recorded: lack of activity

Compound: O=C(O)[C@H]1O[C@@H](Oc2ccc([C@@H]3[C@@H](CC[C@H](O)c4ccc(F)cc4)C(=O)N3c3ccc(F)cc3)cc2)[C@H](O)[C@@H](O)[C@@H]1O [Compound 1, Ezetimibe glucuronide]
specific binding to membranes from NPC1L1 deficient mice ([2]; 500 nM 1, 0.03% taurocholate, 0.05% digitonin): no detectable specific binding affinity; also recorded: virtually undetectable

binding to membranes from NPC1L1 deficient mice ([2]; 4 nM ^35S-2): no detectable binding
Compound: CS(=O)(=O)NCC#Cc1ccc(N2C(=O)[C@H](CC[C@H](O)c3ccc(F)cc3)[C@H]2c2ccc(O[C@@H]3O[C@H](C(=O)O)[C@@H](O)[C@H](O)[C@H]3O)cc2)cc1 [Compound 2, 4-[(2S,3R)-3-[(3S)-3 (4-fluorophenyl)-3-hydroxypropyl]-1-(4-{3-[(methylsulfonyl)amino]prop-1-yn-1-yl}phenyl)-4-oxoazetidin-2-yl]phenyl β-D-glucopyranosiduronic acid]

Cholesteryl Ester, dpm ± sem (mouse NPC1L1; 4 Hour Pulse): 453 ± 118 dpm
Cholesteryl Ester, dpm/mg protein ± sem (mouse NPC1L1; 4 Hour Pulse): 3057 ± 776 dpm/mg protein
Free Cholesterol, dpm ± sem (mouse NPC1L1; 4 Hour Pulse): 77516 ± 1910 dpm
Free Cholesterol, dpm/mg protein ± sem (mouse NPC1L1; 4 Hour Pulse): 523803 ± 10386 dpm/mg protein
Total Cholesterol, dpm ± sem (mouse NPC1L1; 4 Min Pulse): 4569 ± 222 dpm
Total Cholesterol, dpm/mg protein ± sem (mouse NPC1L1; 4 Min Pulse): 30916 ± 1137 dpm/mg protein
Total Cholesterol, dpm ± sem (mouse NPC1L1; 12 Min Pulse): 6120 ± 755 dpm
Total Cholesterol, dpm/mg protein ± sem (mouse NPC1L1; 12 Min Pulse): 41712 ± 4054 dpm/mg protein
Total Cholesterol, dpm ± sem (mouse NPC1L1; 24 Min Pulse): 9749 ± 482 dpm
Total Cholesterol, dpm/mg protein ± sem (mouse NPC1L1; 24 Min Pulse): 74041 ± 3670 dpm/mg protein
Compound: O=C1[C@H](CC[C@H](O)c2ccc(F)cc2)[C@@H](c2ccc(O)cc2)N1c1ccc(F)cc1 [ezetimibe]
ED50 (cholesterol absorption [3]; monkey): 0.5 µg/kg
potency (ED50) in vivo (cholesterol absorption [3]; rhesus): 0.0005 mpk
Cholesteryl Ester, dpm ± sem ([4]; 4 Hour Pulse): 208 ± 9 dpm
Cholesteryl Ester, dpm/mg protein ± sem ([4]; 4 Hour Pulse): 1902 ± 87 dpm/mg protein
Free Cholesterol, dpm ± sem ([4]; 4 Hour Pulse): 56792 ± 568 dpm
Free Cholesterol, dpm/mg protein ± sem ([4]; 4 Hour Pulse): 519607 ± 16203 dpm/mg protein
Total Cholesterol, dpm ± sem ([4]; 4 Min Pulse): 3222 ± 26 dpm
Total Cholesterol, dpm/mg protein ± sem ([4]; 4 Min Pulse): 31881 ± 483 dpm/mg protein
Total Cholesterol, dpm ± sem ([4]; 12 Min Pulse): 4532 ± 165 dpm
Total Cholesterol, dpm/mg protein ± sem ([4]; 12 Min Pulse): 43391 ± 1197 dpm/mg protein
Total Cholesterol, dpm ± sem ([4]; 24 Min Pulse): 6678 ± 215 dpm
Total Cholesterol, dpm/mg protein ± sem ([4]; 24 Min Pulse): 61764 ± 2131 dpm/mg protein
potency (ED50) in vivo (cholesterol absorption [5]): 0.5 mpk
